# Assay results as given in patent US20120058953A1, “COMPOSITIONS AND METHODS FOR ENHANCING APOPTOSIS” (Genentech, Inc., priority 2003, published 2012).
# Read-outs that look alike come from different tables or passages of the source. Non-standard residues stand in square brackets, D forms with d. Residues, ends and D or L forms follow the SMILES beside them. No end group written: not given here. Phe(4-SO3H) = N[C@@H](Cc1ccc(S(=O)(=O)O)cc1)C(=O)O; Phe(4-I) = N[C@@H](Cc1ccc(I)cc1)C(=O)O; Phe(ol) = N[C@H](CO)Cc1ccccc1
# T1: ML-IAP-BIR (Homo sapiens, UniProt Q96CA5)
# T1 construct: made in house; host or cells: Escherichia coli BL21 (DE3)
# T1 sequence (Q96CA5 63-179): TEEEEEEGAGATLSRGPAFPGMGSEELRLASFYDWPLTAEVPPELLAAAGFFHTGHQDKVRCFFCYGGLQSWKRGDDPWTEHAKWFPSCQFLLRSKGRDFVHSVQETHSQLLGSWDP
# T2: ML-IAP-BIR (human, UniProt Q96CA5 63-179)
# T2 construct: range 63-179; Expressed in E. coli from pET15b and purified on Ni-agarose; also called BIR domain of ML-IAP
# T2 sequence (looked up): T1 sequence (Q96CA5 63-179)
# Columns and labels:
# XIAP-BIR2 [1] = molecular target: T3, XIAP-BIR2 (Homo sapiens, UniProt P98170, C202A/C213G); test: fluorescence polarization competition assay, XIAP-BIR2; assay type: binding
# T3 construct: X-IAP BIR2 (amino acid residues 124-240 with mutations C202A and C213G); made in house; host or cells: Escherichia coli BL21 (DE3)
# T3 sequence (P98170 124-240 C202A/C213G): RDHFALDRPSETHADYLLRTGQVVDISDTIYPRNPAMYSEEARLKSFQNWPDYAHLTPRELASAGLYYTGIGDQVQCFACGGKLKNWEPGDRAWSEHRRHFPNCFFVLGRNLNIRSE
# Description: (§1) The apparent Kd values can be determined from the EC50 values.
# (§2) The vectors pET15b-XIAPBIR2C202AC218G, pET15b-XIAPBIR3, and pET15b-MLIAPBIR were introduced into Escherichia coli strain BL21 (DE3). Overnight cultures were diluted 1:100 and grown at 30° C. in LB media with […] to an A600 of 0.5-0.7 with vigorous shaking. Isopropyl b-D-thiogalactoside (IPTG) was added to a final concentration of 1 mM and cultures were grown for 4 hours at 30° C. One litre of frozen cell pellet was resuspended in 100 ml Buffer A (50 mM Tris [pH 8.0], 300 mM NaCl, 5 mM b-mercaptoethanol, 0.5 mM PMSF, 2 mM benzamidine) with 5 mM imidazole and placed on ice for 30 minutes. Cells were lysed by homogenizing followed by repeated passes through a microfluidizer. Lysate was cleared by centrifugation at 15,000 rpm for 30 minutes. The supernatant was loaded onto a Ni-agarose column (Qiagen), washed with 10 column volumes Buffer A with 10 mM imidazole, and eluted with 10 column volumes Buffer A with 300 mM imidazole. Fractions containing BIR protein were pooled. Final concentrations of 5 mM DTT and 100 mM zinc acetate were added. The pool was concentrated and loaded on a Superdex 75™ (Pharmacia) sizing column. Protein eluted over one column volume into 50 mM Tris 8.0, 300 mM NaCl, 0.5 mM PMSF, 2 mM benzamidine, 5 mM DTT, 50 mM zinc acetate, 1 mM sodium azide. Fractions containing BIR protein were pooled and dialyzed against 4 changes of buffer containing 50 mM Tris (pH 8.0), 120 mM NaCl, 5 mM DTT, 0.5 mM PMSF, 2 mM benzamidine, 50 mM zinc acetate, 1 mM sodium azide. Protein was concentrated and stored at −80° C. for further characterization.
# (§3) The apparent Kd values were determined from the EC50 values. […] Samples were read after a 10-minute incubation.
# XIAP-BIR3 [2] = molecular target: T4, XIAP-BIR3 (Homo sapiens, UniProt P98170); test: fluorescence polarization competition assay, XIAP-BIR3; assay type: binding
# T4 construct: X-IAP BIR3 (amino acids residues 241-356); made in house; host or cells: Escherichia coli BL21 (DE3)
# T4 sequence (P98170 241-356): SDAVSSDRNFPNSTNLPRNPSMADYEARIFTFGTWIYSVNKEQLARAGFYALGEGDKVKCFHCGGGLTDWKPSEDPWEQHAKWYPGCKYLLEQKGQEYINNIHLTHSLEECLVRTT
# Description: as §1, §2, §3
# ML-IAP-BIR [3] = molecular target: T1, ML-IAP-BIR; test: fluorescence polarization competition assay, ML-IAP-BIR; assay type: binding
# Description: as §1, §2, §3
# ML-IAP-BIR [4] = molecular target: T2, ML-IAP-BIR; test: fluorescence polarization competition, SMAC-FAM probe
# XIAP-BIR3 [5] = molecular target: T5, XIAP-BIR3 (human, UniProt P98170 241-356); test: as above
# T5 construct: range 241-356; Expressed in E. coli from pET15b and purified on Ni-agarose
# T5 sequence (P98170 241-356 limits assumed): as the sequence (P98170 241-356) above
# XIAP-BIR2 [6] = molecular target: T6, XIAP-BIR2 (human, UniProt P98170 124-240); test: as above
# T6 construct: range 124-240; The text says C213G, the vector name reads pET15b-XIAPBIR2C202AC218G; Expressed in E. coli from pET15b
# T6 sequence (P98170 124-240 C202A/C213G limits assumed): as the sequence (P98170 124-240 C202A/C213G) above
# ML-IAP-BIR [7] = molecular target: T2, ML-IAP-BIR; test: fluorescence polarization competition, SMAC-FAM or Hid-FAM probe
# Description: (§4) The Kᵢ values for the mutant peptides relative to the Kᵢ of [sequence]
# XIAP-BIR2 [8] = molecular target: T6, XIAP-BIR2; test: as above
# Description: as §4
# ML-IAP-BIR [9] = molecular target: T2, ML-IAP-BIR; test: fluorescence polarization competition, SMAC-FAM probe; remark: listed apart in the source
# XIAP-BIR3 [10] = molecular target: T5, XIAP-BIR3; test: as above; remark: listed apart in the source
# XIAP-BIR3 [11] = molecular target: T5, XIAP-BIR3; test: fluorescence polarization competition, SMAC-FAM or Hid-FAM probe
# Description: as §4
# [12] = Table 4, P4 amino acid/phenylethylamine scan, Hid-FAM probe
molecule,measurement,setting,value
CC(C)[C@H](NC(=O)[C@H](C)NC(=O)[C@H](CCC(=O)O)NC(=O)[C@H](C)N)C(=O)N1CCC[C@H]1C(=O)N[C@@H](Cc1c[nH]c2ccccc12)C(=O)N[C@@H](CCCCN)C(=O)N[C@@H](CO)C(=O)N[C@@H](CCC(=O)O)C(=O)O,Ki,XIAP-BIR2 [1],3600 nM
same,Ki,XIAP-BIR3 [2],> 64000 nM
CC(C)[C@H](NC(=O)[C@H](C)NC(=O)[C@H](CCC(N)=O)NC(=O)[C@H](C)N)C(=O)N[C@@H](C)C(=O)N[C@@H](Cc1c[nH]c2ccccc12)C(=O)N[C@@H](CCCCN)C(=O)N[C@@H](CO)C(=O)N[C@@H](CCC(=O)O)C(=O)O,Ki,ML-IAP-BIR [3],7000 nM
CC(C)[C@H](NC(=O)[C@H](C)N)C(=O)NCC(=O)N[C@H](C(=O)N1CCC[C@H]1C(=O)N[C@@H](Cc1c[nH]c2ccccc12)C(=O)N[C@@H](CCCCN)C(=O)N[C@@H](CO)C(=O)N[C@@H](CCC(=O)O)C(=O)O)C(C)C,Ki,ML-IAP-BIR [3],6000 nM
CC[C@H](C)[C@H](NC(=O)[C@H](Cc1c[nH]c2ccccc12)NC(=O)[C@@H]1CCCN1C(=O)[C@@H](NC(=O)[C@H](C)N)C(C)C)C(=O)NCC(=O)N[C@@H](CCCCN)C(=O)N[C@@H](CO)C(=O)N[C@@H](CCC(=O)O)C(=O)O,Ki,ML-IAP-BIR [3],330 nM
CC(C)[C@H](NC(=O)[C@H](C)N)C(=O)N1CCC[C@H]1C(=O)N[C@@H](Cc1ccccc1)C(=O)O [AVPF] (H-AVPF-OH; N-terminus assumed),Ki,ML-IAP-BIR [3]; [12],90 nM
CC[C@H](C)[C@H](NC(=O)[C@@H]1CCCN1C(=O)[C@@H](NC(=O)[C@H](C)N)C(C)C)C(=O)O [AVPI],Ki,ML-IAP-BIR [3]; [12],330 nM
CC(C)[C@H](NC(=O)[C@H](C)N)C(=O)N1CCC[C@H]1C(=O)NCC(c1ccccc1)c1ccccc1 [AVPX24],Ki,ML-IAP-BIR [3]; [12],30 nM
CC(C)[C@H](NC(=O)[C@H](C)N)C(=O)N1CCC[C@H]1C(=O)N[C@@H](CO)[C@@H](O)c1ccccc1 [AVPX25],Ki,ML-IAP-BIR [3]; [12],1500 nM
CC(C)[C@H](NC(=O)[C@H](C)N)C(=O)N1CCC[C@H]1C(=O)NCCc1cccc(C(F)(F)F)c1 [AVPX26],Ki,ML-IAP-BIR [3]; [12],1900 nM
CC(C)[C@H](NC(=O)[C@H](C)N)C(=O)N1CCC[C@H]1C(=O)N[C@H](CO)[C@H](O)c1ccccc1 [AVPX27],Ki,ML-IAP-BIR [3]; [12],410 nM
CC(C)[C@H](NC(=O)[C@H](C)N)C(=O)N1CCC[C@H]1C(=O)N[C@@H]1C[C@H]1c1ccccc1 [AVPX28a],Ki,XIAP-BIR3 [2]; [12],7600 nM
same,Ki,ML-IAP-BIR [3]; [12],850 nM
CC(C)[C@H](NC(=O)[C@H](C)N)C(=O)N1CCC[C@H]1C(=O)N[C@H]1C[C@@H]1c1ccccc1 [AVPX28b],Ki,XIAP-BIR3 [2]; [12],1400 nM
same,Ki,ML-IAP-BIR [3]; [12],1000 nM
CC(CNC(=O)[C@@H]1CCCN1C(=O)[C@@H](NC(=O)[C@H](C)N)C(C)C)c1ccccc1 (stereo partly drawn) [AVPX31],Ki,ML-IAP-BIR [3]; [12],270 nM
CC(C)[C@H](NC(=O)[C@H](C)N)C(=O)N1CCC[C@H]1C(=O)N[C@H](CO)Cc1ccccc1 [AVPX32] (H-AVP[Phe(ol)]; N-terminus assumed),Ki,XIAP-BIR2 [1]; [12],441000 nM
same,Ki,XIAP-BIR3 [2]; [12],390 nM
same,Ki,ML-IAP-BIR [3]; [12],90 nM
CC(C)[C@H](NC(=O)[C@H](C)N)C(=O)N1CCC[C@H]1C(=O)NC[C@H](O)c1ccccc1 [AVPX33],Ki,ML-IAP-BIR [3]; [12],310 nM
CCOc1cccc(CCNC(=O)[C@@H]2CCCN2C(=O)[C@@H](NC(=O)[C@H](C)N)C(C)C)c1 [AVPX34],Ki,ML-IAP-BIR [3]; [12],780 nM
COc1ccc(Br)cc1CCNC(=O)[C@@H]1CCCN1C(=O)[C@@H](NC(=O)[C@H](C)N)C(C)C [AVPX36],Ki,ML-IAP-BIR [3]; [12],1300 nM
CC(C)[C@H](NC(=O)[C@H](C)N)C(=O)N1CCC[C@H]1C(=O)NCCc1cccc(F)c1 [AVPX37],Ki,ML-IAP-BIR [3]; [12],870 nM
COC[C@H](Cc1ccccc1)NC(=O)[C@@H]1CCCN1C(=O)[C@@H](NC(=O)[C@H](C)N)C(C)C [AVPX38],Ki,ML-IAP-BIR [3]; [12],150 nM
CC(C)[C@H](NC(=O)[C@H](C)N)C(=O)N1CCC[C@H]1C(=O)NCCc1cccc(Cl)c1 [AVPX39],Ki,ML-IAP-BIR [3]; [12],680 nM
CCOc1ccccc1CCNC(=O)[C@@H]1CCCN1C(=O)[C@@H](NC(=O)[C@H](C)N)C(C)C [AVPX40],Ki,ML-IAP-BIR [3]; [12],300 nM
AEAVAWKSE,Ki,XIAP-BIR2 [1],2500 nM
same,Ki,XIAP-BIR3 [2],> 64000 nM
same,Ki,ML-IAP-BIR [3],9300 nM
AIPFEEKSE,Ki,XIAP-BIR2 [1],8700 nM
same,Ki,XIAP-BIR3 [2],590 nM
same,Ki,ML-IAP-BIR [3],440 nM
ATAVIEKSE,Ki,XIAP-BIR2 [1],5700 nM
same,Ki,XIAP-BIR3 [2],> 64000 nM
same,Ki,ML-IAP-BIR [3],4300 nM
AVPWGLKSE,Ki,XIAP-BIR2 [1],6900 nM
same,Ki,XIAP-BIR3 [2],540 nM
same,Ki,ML-IAP-BIR [3],420 nM
AIPFEEKSE,Ki,ML-IAP-BIR [4],440 nM
same,Ki,XIAP-BIR3 [5],590 nM
same,Ki,XIAP-BIR2 [6],8700 nM
AVPXAQKSE (X7 at position 4 is cyclopentylalanine) [AVPX7AQKSE],Ki,ML-IAP-BIR [7],7900 nM
same,Ki,XIAP-BIR2 [8],229000 nM
AVP[Phe(4-I)]AQKSE [AVPX10AQKSE],Ki,ML-IAP-BIR [7],450 nM
same,Ki,XIAP-BIR2 [8],27700 nM
AVPWGLKSE,Ki,ML-IAP-BIR [4],420 nM
same,Ki,XIAP-BIR3 [5],540 nM
same,Ki,XIAP-BIR2 [6],6900 nM
AEAVAWKSE,fold specificity for ML-IAP-BIR relative to XIAP-BIR3,ML-IAP-BIR [9],> 10 fold
same,fold weaker than the SMAC-based peptide,ML-IAP-BIR [9],~10 fold
same,fold weaker than the SMAC-based peptide,XIAP-BIR3 [10],> 100 fold
same,Ki,ML-IAP-BIR [4],9300 nM
same,Ki,XIAP-BIR2 [6],2500 nM
AQAVAWKSE,Ki,ML-IAP-BIR [4],7000 nM
AEAVPWKSE,Ki,XIAP-BIR2 [6],3600 nM
ATAVIEKSE,fold specificity for ML-IAP-BIR relative to XIAP-BIR3,ML-IAP-BIR [9],> 10 fold
same,fold weaker than the SMAC-based peptide,ML-IAP-BIR [9],~10 fold
same,fold weaker than the SMAC-based peptide,XIAP-BIR3 [10],> 100 fold
same,Ki,ML-IAP-BIR [4],4300 nM
same,Ki,XIAP-BIR2 [6],5700 nM
AVGVPWKSE,Ki,ML-IAP-BIR [4],6000 nM
AVPWIGKSE,Ki,ML-IAP-BIR [4],330 nM
AVP[Phe(4-SO3H)]AQKSE [AVPX2AQKSE],Ki,XIAP-BIR3 [11],8500 nM
